Patent publication US5130323A, “Pyrrolidine derivatives” (Fujisawa Pharmaceutical Co., Ltd., priority 1988, dated 1992)

Tests used:
TXA2 synthetase = molecular target: T1, TXA2 synthetase (Homo sapiens, UniProt P24557); test: Inhibition of TXA2 synthetase; type: biochemical; details: aspirin treated human platelet microsome, PGH2 as substrate, 25° C., TXB2 measured by radioimmunoassay; read-out: IC50 (Inhibition concentration of TXB2 generation by 50%)
T1 construct: human platelet microsome; purchased Ran Biochem, Israel; host or cells: human platelet microsomes, aspirin treated (APM)
T1 sequence (P24557 1-533): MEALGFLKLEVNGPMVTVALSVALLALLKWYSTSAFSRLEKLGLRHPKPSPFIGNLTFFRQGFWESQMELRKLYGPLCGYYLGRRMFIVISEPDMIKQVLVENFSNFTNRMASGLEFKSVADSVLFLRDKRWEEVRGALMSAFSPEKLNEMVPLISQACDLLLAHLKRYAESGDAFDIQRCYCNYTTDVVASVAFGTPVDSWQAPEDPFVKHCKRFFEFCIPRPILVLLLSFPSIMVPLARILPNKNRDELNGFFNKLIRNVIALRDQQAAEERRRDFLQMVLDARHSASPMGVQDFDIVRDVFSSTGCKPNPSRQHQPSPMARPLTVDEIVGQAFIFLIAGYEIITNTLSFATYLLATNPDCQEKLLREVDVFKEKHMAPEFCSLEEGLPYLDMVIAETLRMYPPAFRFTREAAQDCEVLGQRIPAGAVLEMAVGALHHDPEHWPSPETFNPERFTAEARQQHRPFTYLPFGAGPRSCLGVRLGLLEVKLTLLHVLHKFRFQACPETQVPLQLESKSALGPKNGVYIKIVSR
Method: Aspirin treated human platelet microsome APM, Ran Biochem, Israel) was used as a source of TXA2 synthetase. APM was suspended in 50 mM Tris/100 mM NaCl buffer (pH 7.5). 10 μl of test compound solution was added to 90 μl of APM suspension and incubated at 25° C. for 3 min. And then, 2 μl of PGH2 (10 μg/ml in aceton, Ran Biochem.) was added. After 3-min incubation period, the reaction was terminated by adding 10 μl of FeCl2 solution (25 mM in H2 O), and set aside at room temperature for 15 min and then on ice. The reaction mixture was centrifuged at 10000 rpm for 5 min at 4° C. TXB2 in the supernatant was measured by radioimmunoassay. IC50 (Inhibition concentration of TXB2 generation by 50%) were graphically determined.

[1] = test system: human platelet aggregation induced by U46619; test: Inhibition of human platelet aggregation induced by U46619; type: cell-based; details: human platelet rich plasma, U46619 final 1.0 μM, 37° C.; read-out: IC50 (Inhibition concentration of platelet aggregation by 50%)
Method: In the following test, the used 9,11-methanoepoxy PGH2 (U46619) is characterized pharmacologically as TXA2 mimetic agent and widely used for evaluating TXA2 antagonism of test compounds (for example, vide The Journal of Pharmacology and Experimental Therapeutics Vol. 234, pp 435-441).
Human blood was obtained from healthy male volunteers and mixed with 3.8% (w/v) sodium citrate in a ratio of 9:1. Platelet rich plasma (PRP) was prepared from the citrated blood by centrifugation at 150×g for 15 min. Platelet aggregation in PRP was studied photometrically using an aggregometer (NKK HAEMATRACER 1 . To the 225 μl of PRP, 25 μl of test compound solution was added, and then stirred at 1000 rpm for 2 min at 37° C. To the solution, 5 μl of U46619 (final 1.0 μM) was added as an aggregating inducer. IC50 (Inhibition concentration of platelet aggregation by 50% were determined graphically.

IC50 (TXA2 synthetase): 46 nM | IC50 [1]: 270 nM
SMILES: O=C(O)CCC/C=C\[C@@H]1C[C@@H](NS(=O)(=O)c2ccc(Cl)cc2)CN1Cc1cccnc1 [test compound (1), (2S,4R)-2-[(Z)-5-Carboxy-1-pentenyl]-4-(4-chlorophenylsulfonylamino)-1-(3-pyridylmethyl)pyrrolidine]
